Each structure is given as a SMILES string. Active and inactive are the calls of the source.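 How the source made its calls: active means maximal inhibition of USP17 at or above 30% in the confirmation dose-response, a value not among the printed readouts; inactive means the rest.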

Among the data in PubChem BioAssay AID1645864 (Buhrlage Lab, Dana-Farber Cancer Institute and Novartis …, 2021) are IC50 values, retold here.

For this assay, the target named is Ubiquitin carboxyl-terminal hydrolase 17-like protein 5 (Homo sapiens) (UniProt A8MUK1). Nature of the assay: ubiquitin-specific protease 17 inhibitors, concentration series, biochemical, verification of primary actives (AID 1645864). Conditions: purified USP17, ubiquitin-rhodamine cleavage fluorescence, 3 h.
Ubiquitin carboxyl-terminal hydrolase 17-like protein 5 (Homo sapiens), sequence (A8MUK1 whole entry, looked up): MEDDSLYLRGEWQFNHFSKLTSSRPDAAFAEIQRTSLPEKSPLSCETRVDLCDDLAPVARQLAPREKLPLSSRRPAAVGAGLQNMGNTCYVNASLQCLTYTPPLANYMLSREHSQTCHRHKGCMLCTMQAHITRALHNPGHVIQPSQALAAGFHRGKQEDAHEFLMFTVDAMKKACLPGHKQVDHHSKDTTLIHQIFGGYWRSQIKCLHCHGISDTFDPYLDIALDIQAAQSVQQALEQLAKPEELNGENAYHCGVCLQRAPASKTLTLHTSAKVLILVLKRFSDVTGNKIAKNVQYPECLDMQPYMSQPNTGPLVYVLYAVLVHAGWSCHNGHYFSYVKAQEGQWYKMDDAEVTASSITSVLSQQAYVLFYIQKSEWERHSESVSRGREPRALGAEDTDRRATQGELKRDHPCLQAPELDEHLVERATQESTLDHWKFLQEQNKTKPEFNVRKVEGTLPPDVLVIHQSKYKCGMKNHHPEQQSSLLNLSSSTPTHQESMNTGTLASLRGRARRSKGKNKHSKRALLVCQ
With `COc1cc(NC(=O)c2cc(-c3ccncc3)n(-c3ccc(F)cc3)n2)cc(OC)c1`, the IC50 (as a rule, the concentration that gives 50% inhibition) is > 50 µM (inactive). The value for `C/C=C1/C2=CCCN3C(=O)O[C@H]([C@H]1O)[C@H]23` was 1.42 µM; that for `Cc1ccc(C2c3c(-c4ccccc4O)n[nH]c3C(=O)N2Cc2ccco2)cc1` (stereo unspecified) was 28.1 µM. In the case of `CC1(C)CC(n2[nH]c(=O)c3c2NC(=O)CSC3c2ccc(OCc3ccccc3)cc2)CCO1` (stereo unspecified), the IC50 was 21 µM. As for `COC(=O)c1ccc(NC(=O)CSc2nnc(-c3ccc(O)cc3)n2Cc2ccco2)cc1`, the figure is 24.9 µM; as for `Cc1ccc(CNC(=O)CCCn2c(=O)c3sccc3n(CC(=O)Nc3cc(Cl)ccc3C)c2=O)cc1`, 2.83 µM. As for `COc1ccc(CCNC(=O)COc2ncnc3oc(C)c(C)c23)cc1OC`, the figure is > 50 µM (inactive); as for `NC(=O)CCC(=O)N[C@H]1C[C@H]2CN(Cc3ccccc3)c3ccccc3CN2C1`, > 50 µM (inactive); as for `O=C(COC(=O)c1cc2c(s1)CCC2)c1ccc2[nH]c(=O)[nH]c2c1`, 15.7 µM. The value for `N#Cc1cccc(S(=O)(=O)N2CCc3nc4ccccc4n3CC2)c1` was 19.5 µM; that for `Cc1ccccc1-c1nc(CN(C)S(=O)(=O)c2ccccc2)c(C)o1` was > 50 µM (inactive). Consider `COc1ccc(-c2cc(C(=O)N3CCN(c4ccc([N+](=O)[O-])cc4)CC3)[nH]n2)cc1`, for which the IC50 is > 50 µM (inactive). Regarding `Cc1cc(C)n(-c2ccc(C(=O)Nc3cccc(S(=O)(=O)N4CCCC4)c3)cc2)n1`, the IC50 was 23 µM. The value for `O=C(Nc1ccc(-c2cn3ccsc3n2)cc1)c1ccc(Cl)c([N+](=O)[O-])c1` was 1.17 µM. As to `O=C(/C=C/c1ccc(F)cc1)N1CCc2ccccc2C1`, the IC50 was 37.3 µM. As for `COc1ccc(S(=O)(=O)N2CCN3Cc4ccccc4N(C)CC3C2)cc1` (stereo unspecified), the figure is > 50 µM (inactive). The value for `c1ccc(-c2nc(-c3nnn(-c4ccccc4)c3-c3ccncc3)no2)cc1` was 3.91 µM. The value for `Cc1nn(C)c2c1[C@@H](c1ccc(F)c(Br)c1)[C@H](NC(=O)c1ccccc1)C(=O)N2` was > 50 µM (inactive); that for `Cc1cc(O)c(=O)cc2c1C[C@H]1CC(C)(C)/C=C/C[C@@]3(C)Oc4cc(=O)c(O)cc(C)c4C[C@@H]3C[C@H](O)[C@]1(C)O2` was > 50 µM (inactive). As to `CC(=O)N1CCc2cc(S(=O)(=O)NCCC(=O)Nc3cccc(C)c3C)ccc21`, the IC50 was 23.7 µM. In the case of `Cn1cccc1C(=O)N1CCCC2(C1)Nc1cccnc1NC2=NC1CCCC1` (stereo unspecified), the IC50 is > 50 µM (inactive).

With `Fc1cccc(Cn2cc(-c3noc(-c4cccnc4)n3)nn2)c1`, the IC50 was 38.3 µM.

As to `COc1ccc(C(C)NC(=O)c2cnc(-c3ccccc3)nc2-c2ccncc2)cc1` (stereo unspecified), the IC50 was > 50 µM (inactive). As for `Cc1c(C)n(-c2ccccc2)c2ncn(CC(=O)NCCCc3ccccc3)c(=O)c12`, the figure is 34.4 µM; as for `Cc1nn(-c2ccccc2)c2c1N=C1C(Cl)=CC(Cl)=CN1C21C(=O)Nc2ccccc21` (stereo unspecified), > 50 µM (inactive); as for `COc1ccc(NC(=O)Cn2c(CS(=O)(=O)c3ccc(C)cc3)nc3ccccc32)cc1`, 6.52 µM. The value for `O=C1CN(C(=O)COC(=O)CCCN2C(=O)c3cccc4cccc(c34)C2=O)c2ccccc2N1` was 49.3 µM; that for `Cc1ccc(Cc2nc(-c3ccc(=O)[nH]c3)no2)cc1` was > 50 µM (inactive); that for `COc1ccc(Cn2c(=O)[nH]c3cc(C(=O)NCCCN4CCN(c5cccc(Cl)c5)CC4)ccc3c2=O)cc1` was 3.03 µM. The value for `CCOC(=O)c1ccc(NC(=O)COc2cccc3c2CCN(CC)C3=O)cc1` was > 50 µM (inactive); that for `c1ccc2c(c1)ccc1nnc(-c3ccc4c(c3)OCO4)n12` was > 50 µM (inactive). Turning to `Cc1cc(C)c(NC(=O)CSc2nc3nccnc3c(=O)n2Cc2ccccc2Cl)c(C)c1`, the half-maximal inhibitory concentration (IC50) was 4.02 µM. `Cc1cccc(NC(=O)Nc2ccc(C)n(CC(=O)Nc3ccccc3)c2=O)c1`: the IC50 is 22.6 µM.

`O=C(/C=C/c1c(F)cccc1Cl)N1CCc2ccccc2C1`: the IC50 is 34.7 µM.

Regarding `O=C(C(c1ccccc1)c1ccccc1)N1CCC(c2nc3c(nnn3Cc3c(F)cccc3Cl)c(=O)[nH]2)CC1`, the IC50 was 15.1 µM. The value for `CC(=O)c1ccc(NC(=O)C2CCN(c3cncnc3N3CCCC3)CC2)cc1` was > 50 µM (inactive). The value for `NC(=O)c1ccc(NC(=O)Cc2cc(-c3ccc(Cl)cc3)on2)cc1` was > 50 µM (inactive); that for `Cc1nn(-c2cccc(F)c2)c2c1C(C(=O)c1ccc(Cl)s1)CC(=O)N2` (stereo unspecified) was 39.8 µM. The value for `O=C(CCC1CCCCC1)Nc1ccccc1C(=O)N1CCOCC1` was > 5 µM (inactive); that for `O=C1N(Cc2ccc(F)cc2)CCN1c1ccc2c(c1)CCC2` was > 50 µM (inactive); that for `CCc1ccccc1NC(=O)COc1ccccc1-c1nnc(-c2ccccc2)o1` was 25 µM. As to `Cn1c2ccccc2c(=O)c2c(=O)n(Cc3ccccc3)c(-c3ccco3)nc21`, the half-inhibitory concentration (IC50) is 1.55 µM. The value for `CC1CCCN(S(=O)(=O)c2cc3cc(F)ccc3oc2=O)C1` (stereo unspecified) was 31.1 µM.

As to `O=c1ccc(-c2noc(-c3ccc4cc[nH]c4c3)n2)c[nH]1`, the IC50 is > 50 µM (inactive). As for `CS(=O)(=O)NC1CCCN(C(=O)Nc2cccc3ccccc23)C1` (stereo unspecified), the figure is 17.3 µM; as for `COc1ccc(NC(=O)C2Oc3ccc(C)cc3NC2=O)cc1Cl` (stereo unspecified), 14.5 µM; as for `O=C(COc1ccc(Cl)cc1)Nc1noc(-c2ccccc2)n1`, 22.6 µM. The value for `Cc1ccc(NC(=O)c2sc3ncn(CC(=O)N4CCN(c5ccccn5)CC4)c(=O)c3c2C)c(Br)c1` was 35.1 µM.

With `Cc1ccc2nc(-c3cccc(-c4nc5ccc(C)cc5[nH]4)n3)[nH]c2c1`, the IC50 is 7.06 µM.

`COc1ccc(-n2ccn3c(CCC(=O)NCc4ccc(F)cc4)nnc3c2=O)cc1`: the IC50 was 33 µM.

For `Nc1c(C(=O)NCCc2ccccc2)nnn1-c1ccc(F)cc1`, the IC50 is 40.2 µM. The value for `CC1CCc2c(sc3ncnc(OCc4cccc([N+](=O)[O-])c4)c23)C1` (stereo unspecified) was > 50 µM (inactive). The value for `Cc1c(-c2nsc(NC(=O)c3ccc(Cl)cc3)n2)nnn1-c1ccccc1F` was 0.674 µM; that for `COc1cccc(NC(=O)CCc2c(C)nn(-c3cc(N4CCCCC4)ncn3)c2C)c1` was > 50 µM (inactive). As for `O=C(O)c1ccccc1C(=O)Nc1ccc(SC(C(=O)Nc2cccc(Cl)c2)c2ccccc2)cc1` (stereo unspecified), the figure is 23.4 µM; as for `CCOc1cc(N2CCOCC2)c(OCC)cc1NC(=O)c1cc(-c2ccncc2)nc2ccccc12`, 10.1 µM. `O=C(/C=C/C=C/C=C/C1CCCCC1)NC1=C[C@@](O)(/C=C/C=C/C=C/C(=O)NC2=C(O)CCC2=O)[C@@H]2O[C@@H]2C1=O`: the IC50 is 3.32 µM. The value for `COc1cc(OC)c2c(c1)C(=O)C1=C(COC(C)(O)C1)C2=O` (stereo unspecified) was 3.44 µM; that for `COc1ccc(C2CC(c3ccc(C)cc3)N(C(=O)C3CC3)c3ncnn32)cc1` (stereo unspecified) was > 50 µM (inactive). The value for `O=C(NCc1ccc(Cl)cc1)c1ccc(N2CCCS2(=O)=O)cc1` was > 50 µM (inactive); that for `CCNc1oc(-c2ccc(S(=O)(=O)N3CCCCC3)cc2)nc1C#N` was 24.2 µM.
